Laboratory results as given in patent US20260085039A1 (priority 2022, published 2026).
Converted amounts (≈) assume the structure as drawn. “Also recorded” adds a separate entry of the source. Where two headings read alike, the source gives them in different places.

Assays:
[1] = acid for salt screen; cited from earlier work
[2] = Drying studies, form by XRPD after vacuum drying; type: physicochemical; conditions: RT, 1 d
Procedure: XRPD patterns were collected with a PANalytical X'Pert PRO MPD or Empyrean diffractometer using an incident beam of Cu radiation produced using an Optix long, fine-focus source. An elliptically graded multilayer mirror was used to focus Cu Kα X-ray radiation through the specimen and onto the detector. Prior to the analysis, a silicon specimen (NIST SRM 640f) was analyzed to verify the observed position of the Si (111) peak is consistent with the NIST-certified position. A specimen of the sample was sandwiched between 3-μm-thick films and analyzed in transmission geometry. A beam-stop, short antiscatter extension, and antiscatter knife edge were used to minimize the background generated by air. Soller slits for the incident and diffracted beams were used to minimize broadening from axial divergence. Diffraction patterns were collected using a scanning position-sensitive detector (X'Celerator) located 240 mm from the specimen and Data Collector software v. 5.5.

[3] = Solubility (appearance) and pH in saline; type: physicochemical
[4] = Stability in saline by HPLC psilocin peak area over time; conditions: aqueous solution such as saline, 36 hours
[5] = Approximate solubility by solvent aliquot addition, visual inspection, ambient temperature; type: physicochemical
Procedure: Weighed samples were treated with aliquots of designated solvent at ambient temperature. Complete dissolution of the test material was determined by visual inspection. Solubility was estimated based on the total solvent volume used to provide the complete dissolution. If complete dissolution was achieved by only one aliquot addition, the value is reported as “larger than”; if complete dissolution was not achieved, the value is reported as “less than”. The actual solubility may be greater than the value calculated because of the use of solvent aliquots that were too large or due to a slow rate of dissolution.

[6] = Observation of solubility samples after 1 day ambient storage (discoloration); type: physicochemical
Excerpt: The solubility estimates were utilized to design experiments for the salt screen.

**Q.** With `O=C(O)C=C(CC(=O)O)C(=O)O` [Aconitic acid] as the compound, how does the pKa1 [1] read?
**A.** 2.80

**Q.** With `O=S(=O)(O)c1ccccc1` [Benzesulfonic acid] as the compound, how does the pKa1 [1] read?
**A.** 0.17

**Q.** For `CN(C)CCc1c[nH]c2cccc(O)c12.O=C(O)c1ccccc1` [Benzoate Form A], which “XRPD Result after drying” value [2] is on record?
**A.** maintains the same form; also recorded: Benzoate Form A

**Q.** For `O=C1O[C@H]([C@H](O)CO)C(O)=C1O` [Erythorbic acid], which pKa1 [1] is on record?
**A.** 2.1

**Q.** Which Appearance in solution ([3]; 1.0 mg/mL in saline) does the source give for `CCCC(=O)O.CN(C)CCc1c[nH]c2cccc(O)c12` [Psilocin butyrate] here?
**A.** Visually soluble, clear solution

**Q.** What about the pH ([3]; 1.0 mg/mL in saline) of the same compound?
**A.** 6.281

**Q.** For `O=C1CC[C@@H](C(=O)O)N1` [Pyrogluatmic acid], which pKa1 [1] is on record?
**A.** 3.32

**Q.** Which pKa1 [1] does the source give for `C/C=C/C=C/C(=O)O` [Sorbic acid] here?
**A.** 4.75

**Q.** With `CN(C)CCc1c[nH]c2cccc(O)c12` [psilocin, 4-hydroxy-N,N-dimethyltryptamine] as the compound, how does the “decrease in the amount of psilocin present over time” value [4] read?
**A.** ≥ 15%

**Q.** What about the solubility ([5]; ACN, ambient temperature, estimated) of the same compound?
**A.** 9 mg/mL (≈ 44.1 mM)

**Q.** And the solubility ([5]; EtOAc, ambient temperature, estimated)?
**A.** 8 mg/mL (≈ 39.2 mM)

**Q.** And the solubility ([5]; ethanol, organic solvent or mixture, thermodynamic from solid, EtOH, ambient temperature, estimated, read-out: Solubility)?
**A.** < 1 mg/mL

**Q.** And the solubility ([5]; methanol, organic solvent or mixture, thermodynamic from solid, MeOH, ambient temperature, estimated, read-out: Solubility)?
**A.** < 1 mg/mL

**Q.** What about the solubility ([5]; organic solvent or mixture, thermodynamic from solid, Acetone, ambient temperature, estimated, read-out: Solubility) of the same compound?
**A.** 20 mg/mL (≈ 97.9 mM)

**Q.** What about the solubility ([5]; organic solvent or mixture, thermodynamic from solid, Dioxane, ambient temperature, estimated, read-out: Solubility) of the same compound?
**A.** 18 mg/mL (≈ 88.1 mM)

**Q.** And the solubility ([5]; other organic solvents (not water, not alcohols), organic solvent or mixture, thermodynamic from solid, read-out: Solubility)?
**A.** ≥ 8 mg/mL

**Q.** What about the solubility ([5]; tetrahydrofuran, organic solvent or mixture, thermodynamic from solid, THF, ambient temperature, estimated, read-out: Solubility) of the same compound?
**A.** 18 mg/mL (≈ 88.1 mM)

**Q.** What about the solubility ([5]; water and alcohols) of the same compound?
**A.** poorly soluble

**Q.** What about the solubility ([5]; water, thermodynamic from solid, H20, ambient temperature, estimated, read-out: Solubility) of the same compound?
**A.** < 1 mg/mL

**Q.** What about the “Observation after 1 day ambient storage” value ([6]; ACN) of the same compound?
**A.** No discoloration

**Q.** What about the “Observation after 1 day ambient storage” value ([6]; Acetone) of the same compound?
**A.** No discoloration

**Q.** What about the “Observation after 1 day ambient storage” value ([6]; Dioxane) of the same compound?
**A.** No discoloration

**Q.** What about the “Observation after 1 day ambient storage” value ([6]; EtOAc) of the same compound?
**A.** No discoloration

**Q.** What about the “Observation after 1 day ambient storage” value ([6]; EtOH) of the same compound?
**A.** No discoloration

**Q.** What about the “Observation after 1 day ambient storage” value ([6]; H20) of the same compound?
**A.** Discoloration (black suspension)

**Q.** What about the “Observation after 1 day ambient storage” value ([6]; H20, listed as Psilocin free base) of the same compound?
**A.** strong discoloration (black)

**Q.** And the “Observation after 1 day ambient storage” value ([6]; MeOH)?
**A.** No discoloration

**Q.** What about the “Observation after 1 day ambient storage” value ([6]; THF) of the same compound?
**A.** No discoloration

**Q.** What about the Appearance in solution ([3]; 0.1 mg/mL in saline) of the same compound?
**A.** Visually soluble, clear solution

**Q.** And the pH ([3]; 0.1 mg/mL in saline)?
**A.** 9.053

**Q.** And the Appearance in solution ([3]; 1.0 mg/mL in saline)?
**A.** Cloudy solution, not soluble

**Q.** And the pH ([3]; 1.0 mg/mL in saline)?
**A.** 9.395
